The values below come from publication PMC3827738 (Biochimica et biophysica acta, 2010).

The target of this assay is cytochrome bo3 (cbo3), ubiquinol oxidase (Escherichia coli, UniProt P0ABI8). In kind it is biochemical.
cytochrome bo3 (cbo3), ubiquinol oxidase, sequence (P0ABI8 whole entry): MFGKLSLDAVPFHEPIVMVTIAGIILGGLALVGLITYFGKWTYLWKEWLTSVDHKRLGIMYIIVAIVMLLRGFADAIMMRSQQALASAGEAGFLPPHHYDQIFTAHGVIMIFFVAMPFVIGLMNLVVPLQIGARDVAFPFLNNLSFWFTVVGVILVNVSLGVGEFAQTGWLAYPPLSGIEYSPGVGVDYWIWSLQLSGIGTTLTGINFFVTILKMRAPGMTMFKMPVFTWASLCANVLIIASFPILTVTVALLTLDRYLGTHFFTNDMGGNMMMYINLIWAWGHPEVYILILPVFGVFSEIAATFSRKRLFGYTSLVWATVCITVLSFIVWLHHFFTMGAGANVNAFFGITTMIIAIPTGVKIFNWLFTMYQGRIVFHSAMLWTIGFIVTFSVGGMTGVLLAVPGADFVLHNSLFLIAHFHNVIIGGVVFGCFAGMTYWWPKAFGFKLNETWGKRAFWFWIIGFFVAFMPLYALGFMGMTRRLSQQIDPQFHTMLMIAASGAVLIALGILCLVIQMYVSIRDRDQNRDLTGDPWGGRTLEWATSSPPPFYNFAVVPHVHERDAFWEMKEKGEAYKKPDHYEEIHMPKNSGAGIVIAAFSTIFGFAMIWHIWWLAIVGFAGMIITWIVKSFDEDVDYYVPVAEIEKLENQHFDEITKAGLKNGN
cytochrome bo3 (cbo3), ubiquinol oxidase, sequence (P0ABJ1 25-315 partner): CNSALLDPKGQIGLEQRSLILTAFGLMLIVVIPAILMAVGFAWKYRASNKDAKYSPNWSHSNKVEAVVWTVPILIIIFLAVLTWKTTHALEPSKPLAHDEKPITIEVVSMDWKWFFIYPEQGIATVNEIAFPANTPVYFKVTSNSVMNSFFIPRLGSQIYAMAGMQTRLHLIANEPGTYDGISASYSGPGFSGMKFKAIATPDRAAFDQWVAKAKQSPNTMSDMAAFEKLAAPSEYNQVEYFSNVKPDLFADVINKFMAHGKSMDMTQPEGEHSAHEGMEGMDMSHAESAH
cytochrome bo3 (cbo3), ubiquinol oxidase, sequence (P0ABJ3 whole entry partner): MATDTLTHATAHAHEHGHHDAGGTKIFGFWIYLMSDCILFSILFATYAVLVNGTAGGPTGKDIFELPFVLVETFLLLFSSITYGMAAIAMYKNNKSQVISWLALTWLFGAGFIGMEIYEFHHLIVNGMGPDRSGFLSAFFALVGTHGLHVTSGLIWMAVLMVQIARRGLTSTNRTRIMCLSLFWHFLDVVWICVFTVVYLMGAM
cytochrome bo3 (cbo3), ubiquinol oxidase, sequence (P0ABJ6 whole entry partner): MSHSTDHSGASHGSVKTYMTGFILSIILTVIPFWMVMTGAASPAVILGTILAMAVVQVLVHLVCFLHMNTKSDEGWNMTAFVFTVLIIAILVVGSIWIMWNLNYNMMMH

As for `CCCCCCCc1cc(O)c2ccccc2[n+]1[O-]` [2-n-Heptyl-4-hydroxyquinoline N-oxide], the 50% inhibitory concentration (IC50) came to 28.7 ± 2.1 µM.
